Laboratory results from ChEMBL document CHEMBL1130587, “General synthesis of 3-substituted alkenyl GABA as potential anticonvulsants” (Bioorg Med Chem Lett, 1998).
Active and inactive are the calls of the source. The rule behind the calls is not given here.

Experiment: Compound was evaluated for its ability to increase the […] glutamate decarboxylase at 2.5 mM dose
Set-up: scale not given: the % may be the effect or the level left

Q: Which Activity does the source give for `CC(C)CC(CN)CC(=O)O` (configuration not stated) here?
A: Its Activity is 50%.

Experiment: Half life at a concentration 1 mM.
Format: ADME

Q: For `C=CC(CN)CC(=O)O` (configuration not stated), which half-life at 1000 µM is on record?
A: The half-life at 1000 µM was 39 min.

Q: For `C=CC(N)CCC(=O)O` (configuration not stated) [VIGABATRIN], which half-life at 1000 µM is on record?
A: Its half-life at 1000 µM is 0.3 min.

Experiment: Compound was evaluated for the […] glutamate decarboxylase at 2.5 mM dose; No significant activation

Q: With `C/C=C/C(CN)CC(=O)O` (configuration not stated) as the molecule, how does the Activity read?
A: Its Activity is “inactive”.

Q: For `CC(C)=CC(CN)CC(=O)O` (configuration not stated), which Activity is on record?
A: The Activity was “inactive”.

Q: With `CC(C)/C=C\C(CN)CC(=O)O` (configuration not stated) as the molecule, how does the Activity read?
A: Its Activity is “inactive”.

Q: For `CCC/C=C\C(CN)CC(=O)O` (configuration not stated), which Activity is on record?
A: The Activity was “inactive”.

Q: For `C/C=C\C(CN)CC(=O)O` (configuration not stated), which Activity is on record?
A: The Activity was “inactive”.

Q: For `C=CC(CN)CC(=O)O` (configuration not stated), which Activity is on record?
A: The Activity was “inactive”.

Q: Which Activity does the source give for `C/C=C(\C)C(CN)CC(=O)O` (configuration not stated) here?
A: The Activity was “inactive”.

Q: For `CC/C=C/C(CN)CC(=O)O` (configuration not stated), which Activity is on record?
A: The Activity was “inactive”.

Q: Which Activity does the source give for `CC/C=C\C(CN)CC(=O)O` (configuration not stated) here?
A: The Activity was “inactive”.
